pEC50: −log10 of the molar value.
Tests used:
Aspergillus niger = experiment: Inhibitory effect of Amphotericin required for antifungal activity against Aspergillus niger; assay type: functional
[1] = Effective concentration of Amphotericin required for hemolytic activity against 1% human erythrocytes; assay type: functional

With CC1OC(O[C@H]2/C=C/C=C/C=C/C=C/C=C/C=C/C=C/[C@H](C)[C@@H](O)[C@@H](C)[C@H](C)OC(=O)C[C@H](O)C[C@H](O)CC[C@@H](O)[C@H](O)C[C@H](O)C[C@]3(O)C[C@H](O)[C@@H](C(=O)O)[C@H](C2)O3)C(O)C(NCc2ccc(F)cc2)C1O (stereo partly specified) the Activity (Aspergillus niger) was >50 µg and the pEC50 [1] was 5.59.
In the case of CC1OC(O[C@H]2/C=C/C=C/C=C/C=C/C=C/C=C/C=C/[C@H](C)[C@@H](O)[C@@H](C)[C@H](C)OC(=O)C[C@H](O)C[C@H](O)CC[C@@H](O)[C@H](O)C[C@H](O)C[C@@]3(O)O[C@@H](C2)[C@H](C(=O)O)[C@@H](O)[C@@H]3F)C(O)C(N)C1O (stereo partly specified), the Activity (Aspergillus niger) was 10 µg and the pEC50 [1] was 5.89.
Compound C[C@@H]1[C@H](O)[C@@H](C)/C=C/C=C/C=C/C=C/C=C/C=C/C=C/[C@H](O[C@@H]2O[C@H](C)[C@@H](O)[C@H](N)[C@@H]2O)C[C@@H]2O[C@](O)(C[C@@H](O)C[C@@H](O)[C@H](O)CC[C@@H](O)C[C@@H](O)CC(=O)O[C@H]1C)C[C@H](O)[C@H]2C(=O)O [AMPHOTERICIN B] has an Activity (Aspergillus niger) of 10 µg and a pEC50 [1] of 5.85.

— ChEMBL document CHEMBL1142753, “Bioactive fluorinated derivative of amphotericin B” (Bioorg Med Chem Lett, 2005)
